{"source": "patent US20240057592A1", "about": "“PESTICIDE COMPOSITIONS OF PHENOL AND RESORCINOL DIENES AND TRIENES” (METABOLIC INSIGHTS LTD., priority 2020, published 2024)", "key": {"Rhizoctonia solani [1]": {"system": "Rhizoctonia solani", "experiment": "Microplate based assay of bioactivity against Rhizoctonia solani", "type": "cell-based", "description": "• 1) Screen plate at 3 more dates: 3 d, 7 d, 14 d and 21 d following the assay start • 2) Calculate the difference of absorbance between each screen and the read at zero time • 3) Calculate the percentage of growth inhibition of each well at each time point. […]"}, "Pythium aphanidermatum [2]": {"system": "Pythium aphanidermatum", "experiment": "Microplate based screening of bioactivity against Pythium aphanidermatum", "type": "cell-based", "quoted_text": "The following Materials, methods and equipment were used: • Materials: SCH, PDBC, DMSO • Equipment: Plate reader, Centrifuge, Shaker, Incubator\n• Grow Pythium aphanidermatum on SCH in 90 mm petri plates to get sporulating hyphae. […]\n• 1) Read out the plate at 3 more dates: 3 d, 7 d, 14 d and 21 d following the assay start • 2) Calculate the difference of absorbance between each readout and the readout at zero time • 3) Calculate the percentage of growth inhibition of each well at each time point. […]"}, "Pseudomonas syringae": {"system": "Pseudomonas syringae", "experiment": "Microplate based screening of bioactivity against Pseudomonas syringae", "type": "cell-based", "quoted_text": "• 1) Grow Pseudomonas on LBA plates at 28° C. for 2 days to get a single colony • 2) Transfer a single colony using a sterile toothpick into a 50 ml sterile tube containing 5 ml LB and grow for 24 at 28° C. and 150 RPM • 3) Chill the tube in the fridge for 1 h • 4) Add 7.5 ml of fridge cold, sterile, glycerol solution to the tube—to get 60% glycerol solution • 5) Mix well but gently to get perfect mixing—use vortex at 1000 RPM • 6) Aliquot 100 ul of bacteria suspension in 60% glycerol into 1.5 ml tubes—each aliquot should be enough for screening of 10 microplates • 7) Store the bacteria suspension in 60% glycerol at −20° C.\n• 1) Take 1.5 ml tube with 100 ul frozen Pseudomonas suspension from the freezer and thaw it on ice • 2) Prepare in the hood 50 ml tubes with 40 ml fridge cold LB • 3) Mix 40 ul of bacteria suspension with 40 ml fridge cold LB in a 50 ml tube. This amount is enough for activity screening of 10 microplates • 4) Use this suspension for bioactivity screening experiments.\nThe bioactivity values are in % and reflect the potential of eradicating the target pests. Rules for Bioactivity Relative Value Calculation (Expressed in % from Maximal Value) • a. […] Pseudomonas syringae—activity grade (1/2/3)×repeats #X days of activity/168 (maximal value 3×4×14=168)*100"}, "Pythium aphanidermatum [3]": {"system": "Pythium aphanidermatum", "experiment": "In-vivo validation under greenhouse conditions in cucumber seedlings infected with Pythium aphanidermatum", "conditions": "preventative treatment 24 h before inoculation, 7 d after inoculation, best of 9 experiments", "protocol": "(§1) Formulation 3—Three types of stock solutions were used for final CART formulation preparation at 400 ppm: • (A) 0.1% CART solution in water+base (CART dissolved in water to 0.1% and sonicated for 10 mins at room temperature, then Na2CO3 25% stock was added to volume of 4% of the solution. The solution should be clear orange and at pH=8.0. The solution was sonicated for 20 minutes); • (B) 0.4% Xanthan Gum in water (w/w); • (C) 0.6% Silwet in water (w/w). The final formulation which was applied to cucumber seedlings composed of: 40% of stock solution A, 10% of stock solutions B and C, and 40% of water. The final formulation 3 was either applied as 400 ppm of diluted to the required concentrations and applied to cucumber seedlings. Formulation 4—Three types of stock solutions were used for final CART formulation preparation at 400 ppm: • (A) 10% CART in DMSO (CART dissolved in DMSO to 10% (w/w) and sonicated for 5 mins at room temperature); • (B) 0.4% Xanthan Gum in water (w/w); • (C) 0.6% Silwet in water (w/w). The final formulation which was applied to cucumber seedlings composed of: […], 10% of stock solutions B and C, and 76% of water. The final formulation 4 was either applied as 400 ppm of diluted to the required concentrations and applied to cucumber seedlings. […]\n(§2) To evaluate the effect of a Cardol triene in infected plants compared to control plants (infected but not treated) the data was analyzed by Student's t-test and the p-value is calculated. […]\n• General description: Pythium aphanidermatum disease severity development was evaluated following preventative treatment by Cardol triene (CART) […]"}, "Rhizoctonia solani [4]": {"system": "Rhizoctonia solani", "experiment": "In-vivo validation under greenhouse conditions in cucumber seedlings infected with Rhizoctonia solani", "conditions": "preventative treatment 24 h before inoculation, 7 d after inoculation, best of 9 experiments", "protocol": "as §1, §2\n• General description: Rhizoctonia disease severity were evaluated following preventative treatment with CART (Cardol triene). […]"}, "[5]": {"conditions": "10 ul of 250 ppm solution + 40 ul inoculum, activity grade x repeats x days of activity/252*100, read to 21 d"}}, "data": [{"smiles": "C=CC/C=C\\C/C=C\\CCCCCCCc1cc(O)cc(O)c1", "note": "[Cardol triene, 5-8Z,11Z,14-pentadecatrien-1-yl-1,3-benzenediol]", "values": [{"measurement": "Relative Activity value (%)", "setting": "Rhizoctonia solani [1]; [5]", "value": 60, "unit": "%"}, {"measurement": "pesticidal activity in words", "setting": "Rhizoctonia solani [1]; summary statement", "value": "effective pesticides"}, {"measurement": "Relative Activity value (%)", "setting": "Pythium aphanidermatum [2]; [5]", "value": 100, "unit": "%"}, {"measurement": "pesticidal activity in words", "setting": "Pythium aphanidermatum [2]; summary statement", "value": "effective pesticides"}, {"measurement": "Relative Activity value (%)", "setting": "Pseudomonas syringae; 10 ul of 250 ppm solution + 40 ul inoculum, activity grade x repeats x days of activity/168*100", "value": 50, "unit": "%"}, {"measurement": "pesticidal activity in words", "setting": "Pseudomonas syringae; summary statement", "value": "effective pesticides"}, {"measurement": "efficacy at preventing the plants death", "setting": "Pythium aphanidermatum [3]; 100 ppm", "value": "up to 97.6%"}, {"measurement": "efficacy at preventing the plants death", "setting": "Pythium aphanidermatum [3]; 200 ppm", "value": "up to 100%"}, {"measurement": "efficacy at preventing the plants death", "setting": "Pythium aphanidermatum [3]; 400 ppm", "value": "up to 71.4%"}, {"measurement": "efficacy at preventing the plants death", "setting": "Rhizoctonia solani [4]; 100 ppm", "value": "up to 81.2%"}, {"measurement": "efficacy at preventing the plants death", "setting": "Rhizoctonia solani [4]; 200 ppm", "value": "up to 100%"}, {"measurement": "efficacy at preventing the plants death", "setting": "Rhizoctonia solani [4]; 400 ppm", "value": "up to 98.4%"}]}]}
